In ChEMBL document CHEMBL3046564, “Antifungal activity of beta-asarone from rhizomes of Acorus gramineus” (2004):
Values after ≈ are worked out from the molar mass of the structure shown. Active and inactive are the calls of the source. The rule behind the calls is not given here.

How the values were obtained:
[1] = tested on: Colletotrichum orbiculare; assay: Antifungal activity against Colletotrichum orbiculare infested cucumber plant grown under greenhouse condition assessed as reduction in lesion formation on second leaves at 10 to 500 ug/ml sprayed at two-leaf stage 1 day prior inoculation measured after 6 days post inoculation; format: functional, organism-based
Sclerotinia sclerotiorum = assay: Antimicrobial activity against Sclerotinia sclerotiorum assessed as mycelial growth inhibition after 3 to 5 days; format: functional
Bacillus subtilis = assay: Antimicrobial activity against Bacillus subtilis assessed as mycelial growth inhibition after 3 to 5 days; format: functional
[2] = tested on: Pectobacterium carotovorum subsp. carotovorum; assay: Antimicrobial activity against Pectobacterium carotovorum subsp. carotovorum assessed as mycelial growth inhibition after 3 to 5 days; format: functional
Ilyonectria destructans = assay: Antimicrobial activity against Ilyonectria radicicola assessed as mycelial growth inhibition after 3 to 5 days; format: functional
Globisporangium ultimum = assay: Antimicrobial activity against Pythium ultimum assessed as mycelial growth inhibition after 3 to 5 days; format: functional
Botrytis cinerea = assay: Antimicrobial activity against Botryotinia fuckeliana assessed as mycelial growth inhibition after 3 to 5 days; format: functional
[3] = tested on: Colletotrichum orbiculare; assay: Antimicrobial activity against Colletotrichum orbiculare assessed as mycelial growth inhibition after 3 to 5 days; format: functional
Candida albicans = assay: Antimicrobial activity against Candida albicans assessed as mycelial growth inhibition after 3 to 5 days; format: functional
[4] = tested on: Colletotrichum orbiculare; assay: Antifungal activity against Colletotrichum orbiculare infested cucumber plant grown under greenhouse condition assessed as supression of anthracnose development at 500 ug/ml sprayed at two-leaf stage 1 day prior inoculation measured after 6 days post inoculation; format: functional, organism-based
Rhizoctonia solani = assay: Antimicrobial activity against Rhizoctonia solani assessed as mycelial growth inhibition after 3 to 5 days; format: functional
Xanthomonas campestris = assay: Antimicrobial activity against Xanthomonas euvesicatoria assessed as mycelial growth inhibition after 3 to 5 days; format: functional
[5] = tested on: Colletotrichum orbiculare; assay: Antifungal activity against Colletotrichum orbiculare infested cucumber plant grown under greenhouse condition assessed as reduction in lesion formation on second leaves at 500 ug/ml sprayed at two-leaf stage 1 day prior inoculation measured after 6 days post inoculation; format: functional, organism-based
Alternaria mali = assay: Antimicrobial activity against Alternaria mali assessed as mycelial growth inhibition at 100 ug/ml after 3 to 5 days; format: functional, organism-based
[6] = tested on: Fusarium oxysporum f. sp. lycopersici; assay: Antimicrobial activity against Fusarium oxysporum f. sp. lycopersici assessed as mycelial growth inhibition after 3 to 5 days; format: functional
Cladosporium cucumerinum = assay: Antimicrobial activity against Cladosporium cucumerinum assessed as mycelial growth inhibition after 3 to 5 days; format: functional
Pyricularia grisea = assay: Antimicrobial activity against Magnaporthe grisea assessed as mycelial growth inhibition after 3 to 5 days; format: functional
Ralstonia solanacearum = assay: Antimicrobial activity against Ralstonia solanacearum assessed as mycelial growth inhibition after 3 to 5 days; format: functional
Phytophthora capsici = assay: Antimicrobial activity against Phytophthora capsici assessed as mycelial growth inhibition after 3 to 5 days; format: functional
Saccharomyces cerevisiae = assay: Antimicrobial activity against Saccharomyces cerevisiae assessed as mycelial growth inhibition after 3 to 5 days; format: functional

| SMILES | Activity [1] | MIC (Sclerotinia sclerotiorum) | MIC (Bacillus subtilis) | MIC [2] | MIC (Ilyonectria destructans) | MIC (Globisporangium ultimum) | MIC (Botrytis cinerea) | MIC [3] | MIC (Candida albicans) | Activity [4] | MIC (Rhizoctonia solani) | MIC (Xanthomonas campestris) | Activity [5] | growth inhibition (GI) (Alternaria mali) | MIC [6] | MIC (Cladosporium cucumerinum) | MIC (Pyricularia grisea) | MIC (Ralstonia solanacearum) | MIC (Phytophthora capsici) | MIC (Saccharomyces cerevisiae) |
| --- | --- | --- | --- | --- | --- | --- | --- | --- | --- | --- | --- | --- | --- | --- | --- | --- | --- | --- | --- | --- |
| N#Cc1c(Cl)c(Cl)c(Cl)c(C#N)c1Cl | Active |  |  |  |  |  |  |  |  |  |  |  |  |  |  |  |  |  |  |  |
| C/C=C\c1cc(OC)c(OC)cc1OC [CIS-ASARONE] |  | > 100 µg/mL | 50 µg/mL (≈ 240 µM) | 50 µg/mL (≈ 240 µM) | > 100 µg/mL | 0.5 µg/mL (≈ 2.4 µM) | > 100 µg/mL | 30 µg/mL (≈ 144 µM) | > 100 µg/mL | Active | > 100 µg/mL | 50 µg/mL (≈ 240 µM) | Active | inactive | > 100 µg/mL | 30 µg/mL (≈ 144 µM) | 30 µg/mL (≈ 144 µM) | 50 µg/mL (≈ 240 µM) | > 100 µg/mL | > 100 µg/mL |
